Series [1] can be described thus: in vivo. As to conditions: dog, plasma.
Description: Plasma clearance was measured in dog
Series [2] is described as follows: in vivo. As to conditions: dog, po.
Description: Oral bioavailability in dog
Another series addresses Integrin alpha-V/beta-3 (Homo sapiens, UniProt P05106+P06756).
The nature of series [3]: in vivo. As to conditions: dog.
Description: Half-life was measured in dog
A short description of another series: physchem. The following applies: octanol/water.

Integrin alpha-V/beta-3, sequence (P05106 27-788 limits assumed): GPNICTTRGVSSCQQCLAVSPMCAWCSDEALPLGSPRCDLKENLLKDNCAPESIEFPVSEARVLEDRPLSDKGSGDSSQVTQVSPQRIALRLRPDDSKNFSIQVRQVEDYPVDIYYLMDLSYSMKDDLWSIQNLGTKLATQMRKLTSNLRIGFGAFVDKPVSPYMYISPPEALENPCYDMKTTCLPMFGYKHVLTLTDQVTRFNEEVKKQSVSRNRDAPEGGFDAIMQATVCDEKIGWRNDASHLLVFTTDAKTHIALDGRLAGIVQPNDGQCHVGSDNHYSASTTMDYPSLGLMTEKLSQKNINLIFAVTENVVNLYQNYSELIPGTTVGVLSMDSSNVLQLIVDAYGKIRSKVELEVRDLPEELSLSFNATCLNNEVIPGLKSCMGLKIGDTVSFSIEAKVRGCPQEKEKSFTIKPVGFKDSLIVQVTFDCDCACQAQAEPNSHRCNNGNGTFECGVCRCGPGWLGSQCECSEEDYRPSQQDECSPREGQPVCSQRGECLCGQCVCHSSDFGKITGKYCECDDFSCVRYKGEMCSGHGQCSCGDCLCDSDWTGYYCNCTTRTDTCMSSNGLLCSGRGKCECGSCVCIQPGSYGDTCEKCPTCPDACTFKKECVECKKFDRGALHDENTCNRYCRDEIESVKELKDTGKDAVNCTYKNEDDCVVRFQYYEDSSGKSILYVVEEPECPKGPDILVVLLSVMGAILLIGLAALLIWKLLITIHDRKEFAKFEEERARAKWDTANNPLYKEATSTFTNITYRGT
Integrin alpha-V/beta-3, sequence (P06756 31-889 limits assumed): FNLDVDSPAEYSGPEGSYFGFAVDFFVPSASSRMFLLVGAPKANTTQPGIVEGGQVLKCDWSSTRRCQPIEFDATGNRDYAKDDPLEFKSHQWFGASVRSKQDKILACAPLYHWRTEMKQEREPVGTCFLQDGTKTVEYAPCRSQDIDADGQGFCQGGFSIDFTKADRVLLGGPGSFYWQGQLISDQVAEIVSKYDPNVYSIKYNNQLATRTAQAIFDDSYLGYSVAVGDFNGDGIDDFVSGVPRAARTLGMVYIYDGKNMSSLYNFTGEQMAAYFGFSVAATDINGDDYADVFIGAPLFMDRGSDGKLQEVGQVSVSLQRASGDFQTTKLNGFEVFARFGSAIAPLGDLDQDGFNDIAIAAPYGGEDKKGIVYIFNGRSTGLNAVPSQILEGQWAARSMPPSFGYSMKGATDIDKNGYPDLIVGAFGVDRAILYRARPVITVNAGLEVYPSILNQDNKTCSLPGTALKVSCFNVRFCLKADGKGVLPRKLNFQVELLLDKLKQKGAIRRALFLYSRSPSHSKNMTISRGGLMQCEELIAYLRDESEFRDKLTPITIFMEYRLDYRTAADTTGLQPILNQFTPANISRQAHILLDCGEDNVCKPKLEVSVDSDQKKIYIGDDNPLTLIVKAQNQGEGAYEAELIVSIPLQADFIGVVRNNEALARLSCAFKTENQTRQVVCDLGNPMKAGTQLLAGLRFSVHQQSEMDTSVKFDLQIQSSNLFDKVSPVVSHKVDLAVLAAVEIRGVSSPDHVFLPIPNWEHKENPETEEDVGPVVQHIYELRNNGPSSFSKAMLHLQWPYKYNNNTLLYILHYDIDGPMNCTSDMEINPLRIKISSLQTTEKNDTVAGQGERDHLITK
Integrin alpha-V/beta-3, sequence (P06756 891-1048 limits assumed): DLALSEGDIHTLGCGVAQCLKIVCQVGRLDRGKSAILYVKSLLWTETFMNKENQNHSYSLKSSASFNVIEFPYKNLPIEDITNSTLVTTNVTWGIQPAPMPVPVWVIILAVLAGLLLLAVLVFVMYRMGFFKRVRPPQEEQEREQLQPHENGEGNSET
Description for Integrin alpha-V/beta-3: Displacement of [125I]-labeled nonpeptide from purified recombinant human alphaV-beta3 integrin
Description for physchem: Partition coefficient (logP)

A word on the clearance: it is a measure of how efficiently the substance is removed, as volume per time. A lower clearance goes with a low capacity for elimination. One may read the bioavailability as the share of a dose that reaches the circulation, judged against a reference dose that is usually intravenous. As a reminder, the IC50 is the concentration at which inhibition is half-maximal. Read a low IC50 as greater potency in that assay. The half-life is how long it takes for the measured level to halve. Low values mean fast loss, high ones slow loss. A word on the logP: it is the decadic logarithm of the partition coefficient of the neutral form, usually between octanol and water. The low end stands for lower lipophilicity, the high end for higher lipophilicity. As to `O=C(O)C[C@@H](c1ccc2c(c1)OCC2)N1CC[C@@H](CCCc2ccc3c(n2)NCCC3)C1=O`, the clearance in “in vivo [1]” is 2.1 mL/min/kg. The bioavailability in “in vivo [2]” came to 52%. The compound also came in with an IC50 at Integrin alpha-V/beta-3 of 0.39 nM. Also, the half-life in the series “in vivo [3]” was 8 h. The logP in “physchem” worked out at 0.88.
`O=C(O)C[C@H](NC(=O)CCCCc1ccc2c(n1)NCCC2)c1cnc2ccccc2c1` came in with a logP in the series “physchem” of 0.77.
As for `O=C(O)C[C@@H](c1ccc2c(c1)OCC2)N1CC[C@H](CCCc2ccc3c(n2)NCCC3)C1=O`, in the series “in vivo [1]”, the clearance worked out at 22.9 mL/min/kg. The same compound yielded a bioavailability in “in vivo [2]” of 11.5%. On Integrin alpha-V/beta-3, this compound yielded an IC50 of 0.22 nM. The compound further showed a half-life in the series “in vivo [3]” of 1.5 h. For the same compound, in the series “physchem”, the logP is -0.12.

The values are drawn from ChEMBL document CHEMBL1136469, “Non-peptide alpha(v)beta(3) antagonists: identification of potent, chain-shortened RGD mimetics that incorporate a central pyrrolidinone constraint” (Bioorg Med Chem Lett, 2003).
